This is an account of results in ChEMBL document CHEMBL6177945, “Dyad System of BOAHY-BODIPY Conjugates as Novel Photoswitchable Photosensitizers for Photodynamic Therapy” (J Med Chem, 2025).

The nature of data set [1]: Induction of type-II ROS generation in PBS assessed as increase in singlet oxygen by measuring ABDA absorption under white lamp exposure for 10 mins and UV light for 15 mins followed by white lamp exposure for another 10 mins by ABDA based UV-vis absorption spectrophotometric analysis. It is filed as functional. The conditions noted are these: time 35.0 min.
The test system of data set [2] is HeLa. Put plainly: Photocytotoxicity against human HeLa cells at 10 uM incubated with compound for 30 mins under 365 nm UV light for 5 mins followed white LED exposure for 10 mins and measured after 20 hrs post-illumination by MTT assay. It is filed as functional, cell-based. The note with it: time 20.75 hrs. For orientation: Formazan colour is commonly taken as a measure of viable cells.

A short description of data set [3]: Induction of type-1 ROS generation in PBS assessed as increase in superoxide anion radical by measuring increase in DHR123 fluorescence intensity under white lamp exposure for 10 mins and UV light for 15 mins followed by white lamp exposure for another 10 mins by DHR123 fluorescence based analysis. It is filed as functional. The conditions noted are these: time 35.0 min.

For data set [4], the system named is HeLa. Put plainly: Cytotoxicity against human HeLa cells up to 100 uM incubated for 4 hrs by MTT assay. Format: toxicity, cell-based.
Data set [5] in a line: Induction of type-1 ROS generation in PBS assessed as increase in superoxide anion radical by measuring increase in DHR123 fluorescence intensity at 10 uM irradiated with 450 to 800 nm 40.8 mW cm^-2 light up to 10 mins by DHR123 fluorescence based analysis. Format: functional.
The nature of data set [6]: Induction of type-II ROS generation in PBS assessed as increase in singlet oxygen by measuring ABDA absorption at 20 uM irradiated with 450 to 800 nm 40.8 mW cm^-2 light up to 10 mins by ABDA based UV-vis absorption spectrophotometric analysis. It is filed as functional.
For data set [7], the system named is HeLa. The data set is described as follows: Photocytotoxicity in human HeLa cells at 10 uM incubated for 30 mins irradiated with 450 to 800 nm 40.8 mW cm^-2 white LED light and measured after 20 hrs by MTT assay. It is filed as functional, cell-based. The conditions noted are these: time 20.5 hrs.
In data set [8] the test system is HeLa. Put plainly: Photocytotoxicity against human HeLa cells at 10 uM incubated with compound for 30 mins under 365 nm UV light for 1 mins and measured after 20 hrs post-illumination by MTT assay. Format: functional, cell-based. The conditions noted are these: time 20.51 hrs.
A short description of data set [9]: Phototoxicity in human HeLa cells assessed as cell viability under white LED light for 10 mins. Format: functional, cell-based. The note with it: light or radiation study.
Data set [10] relates to HeLa. The data set is described as follows: Photocytotoxicity against human HeLa cells at 10 uM incubated with compound for 30 mins under 365 nm UV light for 1 mins followed white LED exposure for 2 mins and measured after 20 hrs post-illumination by MTT assay. Format: functional, cell-based. The note with it: time 20.55 hrs.
In data set [11] the test system is HeLa. Put plainly: Upregulation of cellular redox metabolism related proteins in human HeLa cells under white light irradiation exposure by GO analysis. Format: functional, cell-based.
In data set [12] the test system is HeLa. The data set is described as follows: Upregulation of ROS generation related proteins in human HeLa cells under white light irradiation exposure by GO analysis. Format: functional, cell-based.

Calls of active or inactive are those of the source. No cut-off for these calls is given here.

Regarding `CC1=CC(C)=[N+]2C1=C(c1ccccc1)c1c(C)c(/C=[N+]3/N=C(c4ccccc4)O[B-]3(F)F)c(C)n1[B-]2(F)F`, the outcome (in [1]; in the data set on HeLa [2]; in [3]) was Active.
Regarding `COc1ccc(C2=N/[N+](=C/c3c(C)c4n(c3C)[B-](F)(F)[N+]3=C(C)C=C(C)C3=C4c3ccccc3)[B-](F)(F)O2)cc1`, the outcome (in data set [1]; in the data set on HeLa [2]; in data set [3]) was Active.
Turning to `COc1ccc(C2=N/[N+](=C\C3=C(C)C4=C(c5ccccc5)c5c(C)c(/C=[N+]6\N=C(c7ccc(OC)cc7)O[B-]6(F)F)c(C)n5[B-](F)(F)[N+]4=C3C)[B-](F)(F)O2)cc1`, the outcome in the data set on HeLa [2] was Active. Besides, the Activity entry in the data set on HeLa [4] is recorded as “Non-toxic”.
In the case of `COc1ccc(C2=N/[N+](=C\c3c(C)c4n(c3C)[B-](F)(F)[N+]3=C(C)C=C(C)C3=C4c3ccccc3)[B-](F)(F)O2)cc1`, the result (in data set [5]; in the data set with HeLa [7]) was Active. Also, the Activity result was “Not active; Slight Changes In Abda Absorption Observed” in data set [6] and “Non-toxic” in the data set with HeLa [4].
In the case of `CC1=C(/C=[N+]2\N=C(c3ccccc3)O[B-]2(F)F)C(C)=[N+]2C1=C(c1ccccc1)c1c(C)c(/C=[N+]3\N=C(c4ccccc4)O[B-]3(F)F)c(C)n1[B-]2(F)F`, the outcome (in data set [5]; in the data set with HeLa [2]) was Active. The Activity entry with HeLa [4] was “Non-toxic”.
Take `CC1=CC(C)=[N+]2C1=C(c1ccccc1)c1c(C)c(/C=[N+]3\N=C(c4ccc([N+](=O)[O-])cc4)O[B-]3(F)F)c(C)n1[B-]2(F)F`: the outcome in [5] was Active. Moreover, the Activity entry in data set [6] is “Not active; Slight Changes In Abda Absorption Observed”; with HeLa [4], “Non-toxic”.
On to `CC1=C(I)C(C)=[N+]2C1=C(c1ccccc1)c1c(C)c(/C=[N+]3\N=C(c4ccc([N+](=O)[O-])cc4)O[B-]3(F)F)c(C)n1[B-]2(F)F`, for which, in data set [5], the result was Active.
By IC50 is commonly meant the concentration that gives 50% inhibition. Take `CC1=C(I)C(C)=[N+]2C1=C(c1ccccc1)c1c(C)c(/C=[N+]3\N=C(c4ccccc4)O[B-]3(F)F)c(C)n1[B-]2(F)F`: the result (in data set [5]; in data set [6]; in the data set with HeLa [8]) was Active. The IC50 in data set [9] stood at 3.38 µM.
Turning to `CC1=CC(C)=[N+]2C1=C(c1ccccc1)c1c(C)c(/C=[N+]3/N=C(c4ccc([N+](=O)[O-])cc4)O[B-]3(F)F)c(C)n1[B-]2(F)F`, the result in the data set on HeLa [2] was Active.
As to `COc1ccc(C2=N/[N+](=C\c3c(C)c4n(c3C)[B-](F)(F)[N+]3=C(C)C(I)=C(C)C3=C4c3ccccc3)[B-](F)(F)O2)cc1`, the outcome (in [5]; in the data set on HeLa [10]; with HeLa [11]; with HeLa [12]) was Active.
Turning to `CC1=CC(C)=[N+]2C1=C(c1ccccc1)c1c(C)c(/C=[N+]3\N=C(c4ccccc4)O[B-]3(F)F)c(C)n1[B-]2(F)F`, the result (in data set [5]; with HeLa [7]) was Active. Besides, the Activity result in data set [6] is “Not active; Slight Changes In Abda Absorption Observed”; in the data set with HeLa [4], “Non-toxic”.
